What was measured:
Assay type in all cases: in vivo
[1] = test system: sandbur (southern sandbur, Cenchrus echinatus); assay: Test F pre-/postemergence: sandbur
How it was run: (§1)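 0–100 visual control scores, taken 14–21 d after application in the greenhouse. Preemergence treatment was made to silt loam soil at sowing. Postemergence sprays hit 1- to 4-leaf plants (2–18 cm) in peat/vermiculite mix. Surfactant-containing non-phytotoxic solvent served as the vehicle.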

corn (Zea mays) = assay: Test F pre-/postemergence: corn
How it was run: as §1

[2] = test system: Russian thistle (Salsola kali); assay: Test C pre-/postemergence: Russian thistle; details: Preemergence
How it was run: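 Visual injury scored 0–100 (100 = complete control) against untreated controls after 13–15 greenhouse days. Surfactant-containing solvent formulations applied either to soil after sowing (loam/sand) or over 1- to 4-leaf plants, 2–18 cm tall.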

kochia (Kochia scoparia) = assay: Test D pre-/postemergence: kochia
How it was run: (§2)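 Applied as a non-phytotoxic solvent formulation with surfactant, compounds were tested preemergence in silt loam and postemergence on seedlings 2 to 18 cm high in peat-vermiculite medium. Evaluation was visual, 0 meaning no effect and 100 complete control, at 14 to 21 days.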

[3] = test system: mustard, wild (wild mustard, Sinapis arvensis); assay: Test D pre-/postemergence: mustard, wild
How it was run: as §2

[4] = Preemergence, 16 g ai/ha, scale 0 to 100, 0 no effect, 100 complete control
[5] = Preemergence, 31 g ai/ha, scale 0 to 100, 0 no effect, 100 complete control
[6] = Preemergence, 125 g ai/ha, scale 0 to 100
[7] = Preemergence, 250 g ai/ha, scale 0 to 100
[8] = Preemergence, 62 g ai/ha, scale 0 to 100
[9] = 125 g ai/ha, scale 0 to 100, 0 no effect, 100 complete control
[10] = 250 g ai/ha, scale 0 to 100, 0 no effect, 100 complete control
[11] = Postemergence, 31 g ai/ha, scale 0 to 100 (0 no effect, 100 complete control)
[12] = Postemergence, 62 g ai/ha, scale 0 to 100 (0 no effect, 100 complete control)
[13] = Postemergence, 125 g ai/ha, scale 0 to 100, 0 no effect, 100 complete control
[14] = Postemergence, 16 g ai/ha, scale 0 to 100
[15] = Postemergence, 8 g ai/ha, scale 0 to 100
[16] = Postemergence, 31 g ai/ha, scale 0 to 100
[17] = Postemergence, 62 g ai/ha, scale 0 to 100
[18] = Postemergence, 125 g ai/ha, scale 0 to 100
[19] = Preemergence, 8 g ai/ha, scale 0 to 100, 0 no effect, 100 complete control

For `Cc1nn(-c2ccc(C(F)(F)F)c(F)c2)nc1Oc1ccnc(C(F)(F)F)c1` [Compound 148], the “Plant response rating, Sandbur” value [1, 4] was 0, the “Plant response rating, Sandbur” value [1, 5] was 0 and the “Plant response rating, Sandbur” value [1, 6] was 70. For the same compound, the “Plant response rating, Sandbur” value [1, 7] was 100, the “Plant response rating, Corn” value (corn (Zea mays); [4]) was 0 and the “Plant response rating, Corn” value (corn (Zea mays); [5]) was 0. For the same compound, the “Plant response rating, Corn” value (corn (Zea mays); [8]) was 0, the “Plant response rating, Corn” value (corn (Zea mays); [6]) was 0 and the “Plant response rating, Corn” value (corn (Zea mays); [7]) was 5. For the same compound, the “Plant response rating, Russian Thistle” value ([2]; 62 g ai/ha, scale of 0 to 100, 0 is no effect, 100 is complete control) was 85, the “Plant response rating, Russian Thistle” value [2, 9] was 95 and the “Plant response rating, Russian Thistle” value [2, 10] was 95. For the same compound, the “Plant response rating: Kochia” value (kochia (Kochia scoparia); [11]) was 85, the “Plant response rating: Kochia” value (kochia (Kochia scoparia); [12]) was 85 and the “Plant response rating: Kochia” value (kochia (Kochia scoparia); [13]) was 85. The “Plant response rating, Kochia” value (kochia (Kochia scoparia); [14]) was 75, the “Plant response rating, Kochia” value (kochia (Kochia scoparia); [4]) was 10 and the “Plant response rating, Kochia” value (kochia (Kochia scoparia); [5]) was 20. For the same compound, the “Plant response rating, Kochia” value (kochia (Kochia scoparia); [8]) was 10, the “Plant response rating, Kochia” value (kochia (Kochia scoparia); [6]) was 75 and the “Plant response rating: Mustard, Wild” value [3, 11] was 100. For the same compound, the “Plant response rating: Mustard, Wild” value [3, 12] was 100, the “Plant response rating: Mustard, Wild” value [3, 13] was 100 and the “Plant response rating, Mustard, Wild” value [3, 14] was 55. For the same compound, the “Plant response rating, Mustard, Wild” value [3, 4] was 20, the “Plant response rating, Mustard, Wild” value [3, 5] was 15 and the “Plant response rating, Mustard, Wild” value [3, 8] was 55. For the same compound, the “Plant response rating, Mustard, Wild” value [3, 6] was 95.
For `CCOc1nn(-c2ccc(F)cc2)nc1Cc1ccnc(C(F)(F)F)c1` [Compound 196, 4-[[5-ethoxy-2-(4-fluorophenyl)-2H-1,2,3-triazol-4-yl]methyl]-2-(trifluoromethyl)pyridine], the “Plant response rating, Sandbur” value [1, 15] was 10, the “Plant response rating, Sandbur” value [1, 14] was 20 and the “Plant response rating, Sandbur” value [1, 16] was 20. The “Plant response rating, Sandbur” value [1, 17] was 30, the “Plant response rating, Sandbur” value [1, 18] was 50 and the “Plant response rating, Sandbur” value [1, 19] was 5. The “Plant response rating, Sandbur” value [1, 4] was 5, the “Plant response rating, Sandbur” value [1, 5] was 5 and the “Plant response rating, Sandbur” value [1, 6] was 98. The “Plant response rating, Corn” value (corn (Zea mays); [15]) was 15, the “Plant response rating, Corn” value (corn (Zea mays); [14]) was 15 and the “Plant response rating, Corn” value (corn (Zea mays); [16]) was 20. The “Plant response rating, Corn” value (corn (Zea mays); [17]) was 20, the “Plant response rating, Corn” value (corn (Zea mays); [18]) was 25 and the “Plant response rating, Corn” value (corn (Zea mays); [19]) was 0. For the same compound, the “Plant response rating, Corn” value (corn (Zea mays); [4]) was 0, the “Plant response rating, Corn” value (corn (Zea mays); [5]) was 0 and the “Plant response rating, Corn” value (corn (Zea mays); [8]) was 5. For the same compound, the “Plant response rating, Corn” value (corn (Zea mays); [6]) was 30, the “Plant response rating, Russian Thistle” value ([2]; 31 g ai/ha, scale 0 (no effect) to 100 (complete control)) was 90 and the “Plant response rating, Russian Thistle” value ([2]; 62 g ai/ha, scale 0 to 100, 0 no effect, 100 complete control) was 90. The “Plant response rating, Russian Thistle” value [2, 9] was 90, the “Plant response rating, Russian Thistle” value [2, 10] was 90 and the “Plant response rating: Kochia” value (kochia (Kochia scoparia); [11]) was 85. For the same compound, the “Plant response rating: Kochia” value (kochia (Kochia scoparia); [12]) was 90, the “Plant response rating: Kochia” value (kochia (Kochia scoparia); [13]) was 90 and the “Plant response rating, Kochia” value (kochia (Kochia scoparia); [14]) was 70. The “Plant response rating, Kochia” value (kochia (Kochia scoparia); [4]) was 35, the “Plant response rating, Kochia” value (kochia (Kochia scoparia); [5]) was 70 and the “Plant response rating, Kochia” value (kochia (Kochia scoparia); [8]) was 100. For the same compound, the “Plant response rating, Kochia” value (kochia (Kochia scoparia); [6]) was 100, the “Plant response rating: Mustard, Wild” value [3, 11] was 100 and the “Plant response rating: Mustard, Wild” value [3, 12] was 100. For the same compound, the “Plant response rating: Mustard, Wild” value [3, 13] was 100, the “Plant response rating, Mustard, Wild” value [3, 14] was 100 and the “Plant response rating, Mustard, Wild” value [3, 4] was 35. The “Plant response rating, Mustard, Wild” value [3, 5] was 95, the “Plant response rating, Mustard, Wild” value [3, 8] was 100 and the “Plant response rating, Mustard, Wild” value [3, 6] was 100.

Source: patent publication US9302999B2, “Substituted triazoles as herbicides” (E. I. DU PONT DE NEMOURS AND COMPANY, priority 2012, dated 2016)
